Each structure is given as a SMILES string. Some results are limits rather than exact numbers.

The source of these data is US9296720B2, “Carboxamide-substituted heteroaryl-pyrazoles and the use thereof” (AiCuris GmbH & Co. KG, priority 2011, dated 2016).

Common to all, as to type: cell-based
The subject of experiment [1] is HIV-1NL4-3 Wild Type. Nature of the experiment: Luminescence reduction assay, MT4 cells infected with HIV-1NL4-3 luciferase reporter virus, wild type. Particulars: Human immunodeficiency virus 1, MT4, MT4 cells, 2% FCS. A digest of the protocol: (§1)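 Compound dilution series in 1% DMSO, with 2% or 10% FCS, incubated 5 days at 37° C/5% CO2 with MT4 cells previously pellet-infected (2 h) by luciferase reporter NL4-3 virus, wild type or carrying RT resistance mutations. EC50 taken where luminescence from secreted luciferase falls to 50% of untreated infected control.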

The test system of experiment [2] is HIV-1LAI Wild Type. Nature of the experiment: AlamarBlue viability assay, HIV-1LAI-infected MT4 cells. As to conditions: Human immunodeficiency virus 1, MT4, MT4 cells, 10% FCS. A digest of the protocol: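 MT4 cells infected with HIV-1LAI (MOI 0.01, supernatant infection) cultured 5 days at 37 °C with compounds in RPMI with 2% or 10% FCS, 1% DMSO final. AlamarBlue fluorescence after 3 h; EC50 as 50% protection relative to uninfected cells, CC50 from high-concentration cytotoxicity.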

Experiment [3] deals with HIV-1NL4-3 K103N-Y181C. Nature of the experiment: Luminescence reduction assay, MT4 cells infected with HIV-1NL4-3 luciferase reporter virus, RT mutant K103N-Y181C. Particulars: Human immunodeficiency virus 1, MT4, read-out: EC50 (μM) MT4 Cells HIV-1NL4-3 K103N-Y181C 2% FCS, MT4 cells, HIV-1NL4-3 K103N-Y181C, 2% FCS. A digest of the protocol: as §1

For `O=C1CN(C(=O)c2cc(-c3cc(Br)cc(OC(F)F)c3)n(-c3cccnc3)n2)CN1` [Example 56, 1-({5-[3-Bromo-5-(difluoromethoxy)phenyl]-1-(pyridin-3-yl)-1H-pyrazol-3-yl}carbonyl)imidazolidin-4-one], the concentration for a half-maximal effect (EC50) in experiment [1] amounted to 0.002 µM; in experiment [2] it was 0.011 µM; in experiment [3], 0.005 µM.
For the compound `O=C1CN(C(=O)c2cc(-c3cc(F)cc(OC(F)(F)F)c3)n(-c3cccnc3)n2)CN1` [Example 57, 1-({5-[3-Fluoro-5-(trifluoromethoxy)phenyl]-1-(pyridin-3-yl)-1H-pyrazol-3-yl}carbonyl)imidazolidin-4-one], the values for the EC50 in experiment [1], in experiment [2] and in experiment [3] were 0.016 µM, 0.183 µM and 0.05 µM, respectively.
On to `O=C(c1cc(-c2cc(F)cc(OC(F)(F)F)c2)n(-c2cccnc2)n1)N1CCSC1` [Example 59, {5-[3-Fluoro-5-(trifluoromethoxy)phenyl]-1-(pyridin-3-yl)-1H-pyrazol-3-yl}(1,3-thiazolidin-3-yl)methanone], for which the EC50 in experiment [1] is 0.256 µM; in experiment [2], 2.78 µM; in experiment [3], 1.11 µM.
Regarding `O=C(c1cc(-c2cc(F)cc(OC(F)(F)F)c2)n(-c2cccnc2)n1)N1CCOCC1` [Example 61, {5-[3-Fluoro-5-(trifluoromethoxy)phenyl]-1-(pyridin-3-yl)-1H-pyrazol-3-yl}(morpholin-4-yl)methanone], the EC50 stood at 0.092 µM in experiment [1], 0.6 µM in experiment [2] and 0.767 µM in experiment [3].
Taken in the same sequence, the figures for `O=C1CN(C(=O)c2cc(-c3cc(F)cc(OC(F)(F)F)c3)n(-c3ccnc(Cl)c3)n2)CN1` [Example 62, 1-({1-(2-Chloropyridin-4-yl)-5-[3-fluoro-5-(trifluoromethoxy)phenyl]-1H-pyrazol-3-yl}carbonyl)imidazolidin-4-one] were 0.044 µM, 0.352 µM and 0.066 µM.
For `O=C1CN(C(=O)c2cc(-c3cc(F)cc(OC(F)(F)F)c3)n(-c3ccnc(Cl)c3)n2)CCN1` [Example 63, 4-({-(2-Chloropyridin-4-yl)-5-[3-fluoro-5-(trifluoromethoxy)phenyl]-1H-pyrazol-3-yl}carbonyl)piperazin-2-one], the values for the EC50 in experiment [1], in experiment [2] and in experiment [3] were 0.354 µM, 2.08 µM and 0.892 µM, respectively.
`O=C(c1cc(-c2cc(F)cc(OC(F)(F)F)c2)n(-c2ccnc(Cl)c2)n1)N1CC[S+]([O-])C1` (stereo not drawn) [Example 64, {1-(2-Chloropyridin-4-yl)-5-[3-fluoro-5-(trifluoromethoxy)phenyl]-1H-pyrazol-3-yl}(1-oxido-1,3-thiazolidin-3-yl)methanone]: the values for the EC50 in experiment [1], in experiment [2] and in experiment [3] were 0.103 µM, 1.55 µM and 0.771 µM, respectively.
For the compound `O=C(c1cc(-c2cc(F)cc(OC(F)(F)F)c2)n(-c2ccnc(Cl)c2)n1)N1CCS(=O)(=O)C1` [Example 65, {1-(2-Chloropyridin-4-yl)-5-[3-fluoro-5-(trifluoromethoxy)phenyl]-1H-pyrazol-3-yl}(1,1-dioxido-1,3-thiazolidin-3-yl)methanone], the EC50 in experiment [1] came to 0.026 µM; in experiment [2], 0.491 µM; in experiment [3] it was 0.291 µM.
In the case of `O=C1CN(C(=O)c2cc(-c3cc(F)cc(OC(F)F)c3)n(-c3cccnc3)n2)CN1` [Example 66, 1-({5-[3-(Difluoromethoxy)-5-fluorophenyl]-1-(pyridin-3-yl)-1H-pyrazol-3-yl}carbonyl)imidazolidin-4-one], the EC50 in experiment [1] amounted to 0.013 µM; in experiment [2] it was 0.083 µM; in experiment [3], 0.058 µM.
On the same counts, the results for `O=C1CN(C(=O)c2cc(-c3cc(F)cc(OC(F)F)c3)n(-c3cccnc3)n2)CCN1` [Example 67] are 0.051 µM, 0.641 µM and 0.721 µM.
On to `O=C1CN(C(=O)c2cc(-c3cc(F)cc(OC(F)F)c3)n(-c3ccnc(Cl)c3)n2)CN1` [Example 68, 1-({1-(2-Chloropyridin-4-yl)-5-[3-(difluoromethoxy)-5-fluorophenyl]-1H-pyrazol-3-yl}carbonyl)imidazolidin-4-one], for which the results for the EC50 in experiment [1], in experiment [2] and in experiment [3] were 0.062 µM, 0.326 µM and 0.193 µM, respectively.
Regarding `O=C1CN(C(=O)c2cc(-c3cc(F)cc(OC(F)F)c3)n(-c3ccnc(Cl)c3)n2)CCN1` [Example 69, 4-({1-(2-Chloropyridin-4-yl)-5-[3-(difluoromethoxy)-5-fluorophenyl]-1H-pyrazol-3-yl}carbonyl)piperazin-2-one], the EC50 was determined as 0.32 µM in experiment [1], 1.98 µM in experiment [2] and 1.14 µM in experiment [3].
In the case of `O=C1CN(C(=O)c2cc(-c3cc(F)cc(OCC(F)(F)F)c3)n(-c3cccnc3)n2)CN1` [Example 70, 1-({5-[3-Fluoro-5-(2,2,2-trifluoroethoxy)phenyl]-1-(pyridin-3-yl)-1H-pyrazol-3-yl}carbonyl)imidazolidin-4-one], the EC50 in experiment [1] was below 0.002 µM; in experiment [2], 0.034 µM; in experiment [3] it was 0.315 µM.
For the compound `O=C1CN(C(=O)c2cc(-c3cc(F)cc(OCC(F)(F)F)c3)n(-c3cccnc3)n2)CCN1` [Example 71, 4-({5-[3-Fluoro-5-(2,2,2-trifluoroethoxy)phenyl]-1-(pyridin-3-yl)-1H-pyrazol-3-yl}carbonyl)piperazin-2-one], the EC50 was 0.013 µM in experiment [1], 0.246 µM in experiment [2] and above 3.3 µM in experiment [3].
Taken in the same sequence, the figures for `O=C(c1cc(-c2cc(F)cc(OCC(F)(F)F)c2)n(-c2cccnc2)n1)N1CCSC1` [Example 72, {5-[3-Fluoro-5-(2,2,2-trifluoroethoxy)phenyl]-1-(pyridin-3-yl)-1H-pyrazol-3-yl}(1,3-thiazolidin-3-yl)methanone] were 0.038 µM, 0.585 µM and above 3.3 µM.
Taken in the same sequence, the figures for `O=C(c1cc(-c2cc(F)cc(OCC(F)(F)F)c2)n(-c2cccnc2)n1)N1CCS(=O)(=O)C1` [Example 74, (1,1-Dioxido-1,3-thiazolidin-3-yl) {5-[3-fluoro-5-(2,2,2-trifluoroethoxy)phenyl]-1-(pyridin-3-yl)-1H-pyrazol-3-yl}methanone] were 0.004 µM, 0.066 µM and 0.302 µM.
For `O=C(c1cc(-c2cc(F)cc(OCC(F)(F)F)c2)n(-c2ccc[n+]([O-])c2)n1)N1CCS(=O)(=O)C1` [Example 75, (1,1-Dioxido-1,3-thiazolidin-3-yl) {5-[3-fluoro-5-(2,2,2-trifluoroethoxy)phenyl]-1-(1-oxidopyridin-3-yl)-1H-pyrazol-3-yl}methanone], the EC50 in experiment [1] is 0.272 µM; in experiment [2], above 3.3 µM; in experiment [3] it was above 3.3 µM.
As to `O=C1CN(C(=O)c2cc(-c3cc(Cl)cc(OC(F)(F)F)c3)n(-c3cccnc3)n2)CN1` [Example 76, 1-({5-[3-Chloro-5-(trifluoromethoxy)phenyl]-1-(pyridin-3-yl)-1H-pyrazol-3-yl}carbonyl)imidazolidin-4-one], the EC50 in experiment [1] was 0.014 µM; in experiment [2] it was 0.207 µM; in experiment [3], 0.019 µM.
As for `O=C(c1cc(-c2cc(Cl)cc(OC(F)(F)F)c2)n(-c2cccnc2)n1)N1CCSC1` [Example 77, {5-[3-Chloro-5-(trifluoromethoxy)phenyl]-1-(pyridin-3-yl)-1H-pyrazol-3-yl}(1,3-thiazolidin-3-yl)methanone], the 50% effective concentration (EC50) in experiment [1] was 0.067 µM; in experiment [2], 0.861 µM; in experiment [3], 0.364 µM.
Regarding `O=C(c1cc(-c2cc(Cl)cc(OC(F)(F)F)c2)n(-c2cccnc2)n1)N1CCS(=O)(=O)C1` [Example 79, {5-[3-Chloro-5-(trifluoromethoxy)phenyl]-1-(pyridin-3-yl)-1H-pyrazol-3-yl}(1,1-dioxido-1,3-thiazolidin-3-yl)methanone], the EC50 in experiment [1] worked out at 0.038 µM; in experiment [2], 0.244 µM; in experiment [3] it was 0.125 µM.
With `O=C(c1cc(-c2cc(Cl)cc(OC(F)(F)F)c2)n(-c2ccc[n+](O)c2)n1)N1CCS(=O)(=O)C1` [Example 80, {5-[3-Chloro-5-(trifluoromethoxy)phenyl]-1-(1-oxidopyridin-3-yl)-1H-pyrazol-3-yl}(1,1-dioxido-1,3-thiazolidin-3-yl)methanone], the values for the EC50 in experiment [1], in experiment [2] and in experiment [3] were 0.164 µM, 2.79 µM and 0.075 µM, respectively.
Take `O=C1CN(C(=O)c2cc(-c3cc(Cl)cc(OC(F)F)c3)n(-c3cccnc3)n2)CN1` [Example 81, 1-({5-[3-Chloro-5-(difluoromethoxy)phenyl]-1-(pyridin-3-yl)-1H-pyrazol-3-yl}carbonyl)imidazolidin-4-one]: the results for the concentration for a half-maximal effect (EC50) in experiment [1], in experiment [2] and in experiment [3] were 0.003 µM, 0.015 µM and 0.008 µM, respectively.
On to `O=C(c1cc(-c2cc(Cl)cc(OC(F)F)c2)n(-c2cccnc2)n1)N1CCSC1` [Example 82, {5-[3-Chloro-5-(difluoromethoxy)phenyl]-1-(pyridin-3-yl)-1H-pyrazol-3-yl}(1,3-thiazolidin-3-yl)methanone], for which the EC50 in experiment [1] was determined as 0.016 µM; in experiment [2], 0.348 µM; in experiment [3], 0.307 µM.
On the same counts, the results for `COc1cc(OC(F)(F)F)cc(-c2cc(C(=O)N3CNC(=O)C3)nn2-c2cccnc2)c1` [Example 84, 1-({5-[3-Methoxy-5-(trifluoromethoxy)phenyl]-1-(pyridin-3-yl)-1H-pyrazol-3-yl}carbonyl)imidazolidin-4-one] are 0.01 µM, 0.048 µM and 0.008 µM.
